Laboratory results reported in US8298513B2, “Hexatriene-β-carbonyl compound” (Osaka University, priority 2007, dated 2012).

Assays:
[1] = target: T1, human serum albumin (HSA) (Homo sapiens, UniProt P02768); assay: Labeling of human serum albumin (HSA) with Compound 8, 57Co incorporation, gamma ray counting; details: room temperature 30 minutes, PBS, gamma ray count
Method: HSA (0.5 mg, 7.5 nmol was dissolved in a PBS buffer solution (1.5 ml) to prepare a 5 μM HSA solution. 320 μl (1.6 nmol) of the HSA solution was introduced into each of 3 Eppendorf tubes. 1.2 μl (40 nmol), 2.3 μl (80 nmol) and 11.8 μl (0.4 μmol) of a DMF solution (3.38×10^−2M) of Compound 8 described above were added to the respective Eppendorf tubes. 160 μl (0.8 nmol) of the 5 μM HSA solution was added to each of the Eppendorf tubes, and 11.8 μl (0.4 μmol) of a DMF solution (3.38×10^−2M) of Compound 8 described above was added to each tube. The reaction mixtures all were left to stand at room temperature for 30 minutes. Purification was performed using a filter with a 30000 molecular weight cut off manufactured by Millipore, followed by concentration. The protein concentration in the contents of each Eppendorf tube was measured, 5 μl of the contents of each Eppendorf tube were added to other Eppendorf tubes, and a 0.25 M ammonium acetate buffer solution (15 μl) and a 400 μM ^57Co solution (10 μl) were added thereto. The reaction mixtures were incubated at 41° C. for 3 hours. 10 μl of a 0.01 M 1,4,7,10-tetraazacyclododecane-1,4,7,10-tetraacetic acid (DOTA) solution was added to each reaction mixture, and incubation was performed at 41° C. for 10 minutes. […] The silica gel plates were cut in half lengthwise, and gamma rays were counted with a gamma ray counter using the plates.

anti-GFP antibody = assay: Labeling of anti-GFP antibody with Compound 8, GFP fluorescence measurement after immune precipitation; details: 10 to 1250 equivalents, room temperature 10 minutes; GFP fluorescence excitation 395 nm, emission 509 nm
Method: To a PBS buffer solution (81 μl) was added 27 μl of an anti-GFP antibody (20 μg/μl, PBS buffer solution, manufactured by Nacalai Tesque, Inc.) for dilution. The diluted anti-GFP solution was added to 4 Eppendorf tubes each in an amount of 3.3 μM, 8 μl, 2.6×10^−11 mol, and Compound 8 was added in a proportion of 10 equivalents (24 μM, 5 μl, 2.6×10^−10 mol), 50 equivalents (0.12 mM, 5 μl, 1.3×10^−9 mol), 250 equivalents (0.61 mM, 5 μl, 6.6×10^−9 mol) and 1250 equivalents (12 mM, 2.7 μl, 3.3×10^−8 mol) relative to the anti-GFP antibody. The mires were left to stand for 10 minutes at room temperature, and then a GFP antigen (cultured from Escherichia coli, PBS buffer solution, 1000 μl) was added and reacted at 4° C. for 1 hour. Thereafter, Protein G (500 μg, manufactured by GE Healthcare Ltd.) was added to the mixtures and left to stand at the same temperature for 30 minutes. Then, labeled anti-GFP (Compound 24) was purified by subjecting the mixtures to immune precipitation. GFP fluorescence measurement (excitation: 395 nm, emission: 509 nm) was performed on each anti-GFP.

[2] = target: T1, human serum albumin (HSA); assay: Labeling of human serum albumin (HSA), fluorescence spectrum of the reaction product; details: phosphate buffer pH 7.4, 40° C. for 1 hour; 420 nm excitation light
Method: (§1) HSA was dissolved in a phosphate buffer (0.1 M, pH 7.4) to adjust the concentration to 5.0×10^−5 M. 20 μl of a phosphate buffer (0.1 M, pH 7.4) was added to 200 μl of the solution for dilution, and the mixture was pre-incubated at 40° C. for 5 minutes. A 1,4-dioxane (20 μl) solution of Compound 50 (50 μg, 0.1 μmol) was added to the mixture, and the mixture was incubated at 40° C. for 1 hour. 300 μl of 1% acetic acid was added to the reaction solution to quench the reaction, and the reaction solution was purified by gel filtration and lyophilized.
as §1, with “buffer solution” for “buffer”, “Compound 56” for “Compound 50”

[3] = PET imaging of the biodistribution of 68Ga-DOTA-labeled somatostatin in a rat; assay type: in vivo, rat (Wistar rat); details: tail vein, given as 68Ga-DOTA-labeled somatostatin (Compound 41), accumulated 3 to 7 minutes after administration
Method: A DMF solution (40 μl) of Compound 8 produced in Example 3 described above was added to a solution of somatostatin (0.17 mg, 0.10 μmol) in Otsuka distilled water (154 μl) and put into a vortex generator. The reaction mixture was left to stand at room temperature for 30 minutes and then lyophilized, thereby giving the titled Compound 9.
A 1 N hydrochloric acid solution (400 μl) of ^68GaCl3 eluted from a ^68Ga/^68Ge generator was purified, neutralized with aqueous 4 N NaOH and then added to Compound 9 described above. After incubation at 40° C. for 10 minutes, it was injected into a rat (Wistar rat 8W, male, 235 g) (1.68 mCi). Propofol was administered continuously at a rate of […] into the tail vein of the rat for tranquilization, and a PET tracer was administered into the tail vein of the rat.

T1 sequence (P02768 25-609): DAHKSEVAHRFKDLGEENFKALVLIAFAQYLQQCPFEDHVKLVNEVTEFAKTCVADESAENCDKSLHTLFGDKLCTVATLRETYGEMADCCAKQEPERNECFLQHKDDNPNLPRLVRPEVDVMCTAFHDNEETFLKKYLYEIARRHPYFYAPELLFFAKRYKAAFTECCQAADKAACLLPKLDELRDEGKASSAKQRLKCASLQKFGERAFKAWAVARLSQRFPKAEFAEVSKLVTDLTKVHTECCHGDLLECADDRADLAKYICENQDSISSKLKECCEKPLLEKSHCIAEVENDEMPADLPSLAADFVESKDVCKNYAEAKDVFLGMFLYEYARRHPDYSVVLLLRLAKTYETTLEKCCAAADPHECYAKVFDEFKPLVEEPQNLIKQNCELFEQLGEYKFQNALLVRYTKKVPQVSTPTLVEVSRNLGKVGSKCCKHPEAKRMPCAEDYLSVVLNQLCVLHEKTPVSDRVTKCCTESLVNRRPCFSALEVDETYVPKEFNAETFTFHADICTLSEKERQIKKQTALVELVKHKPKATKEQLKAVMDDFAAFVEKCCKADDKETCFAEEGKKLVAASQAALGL

CCOC(=O)C(/C=C/c1ccc(NC(=O)CNC(=O)CN2CCN(CC(=O)O)CCN(CC(=O)O)CCN(CC(=O)O)CC2)cc1)=C/C=O [Compound 8, 10-(2-(2-(4-((1E,3E)-3-ethoxycarbonyl-5-oxopenta-1,3-dienyl)phenylamino)-2-oxoethylamino)-2-oxoethyl)-1,4,7,10-tetraazacyclododecane-1,4,7-triacetic acid]
labeling reaction with HSA (incorporation into HSA, FIG. 1) [1]: promptly reacts with somatostatin | labeling reaction with anti-GFP antibody (incorporation into antibody, FIG. 2) (anti-GFP antibody): promptly reacts with the anti-GFP antibody

CCN(CC)c1ccc2cc(C(=O)NCCOCCOC(=O)C(/C=C/c3ccccc3)=C/C=O)c(=O)oc2c1 [Compound 50, 2-(2-(7-diethylaminocoumarin)-3-carbonylaminoethoxy)ethyl (E,E)-4-oxo-2-styrylbut-2-enoate]
fluorescence of the reaction product with HSA [2]: intense fluorescence was observed near 460 nm

CCN(CC)c1ccc2cc(C(=O)NCCOCCOC(=O)C(/C=C/c3ccc(NC(=O)CCCCCNc4ccc([N+](=O)[O-])c5nonc45)cc3)=C/C=O)c(=O)oc2c1 [Compound 56, 2-(2-(7-diethylaminocoumarin)-3-carbonylaminoethoxy)ethyl (E,E)-4-oxo-2-((6-(N-(7-nitrobenz-2-oxa-1,3-diazol-4-yl)amino)hexanamide)styryl)but-2-enoate]
fluorescence of the reaction product with HSA [2]: intense fluorescence was observed near 460 nm

C[C@H](N)C(=O)NCC(=O)N[C@H]1CSSC[C@@H](C(=O)O)NC(=O)[C@H](CO)NC(=O)[C@H]([C@@H](C)O)NC(=O)[C@H](Cc2ccccc2)NC(=O)[C@H]([C@@H](C)O)NC(=O)[C@H](CCCCN)NC(=O)[C@H](Cc2c[nH]c3ccccc23)NC(=O)[C@H](Cc2ccccc2)NC(=O)[C@H](Cc2ccccc2)NC(=O)[C@H](CC(N)=O)NC(=O)[C@H](CCCCN)NC1=O [somatostatin]
distribution in the living body (PET image, FIG. 3) [3]: distributed across the heart of the rat
